{
  "source": "patent EP0103636B1",
  "about": "“USE OF OPIUM ANTAGONISTS FOR THE MANUFACTURE OF MEDICAMENTS FOR CONTROLLING GASTROINTESTINAL DYSMOTILITY” (ROCKEFELLER UNIVERSITY, priority 1982, dated 1983)",
  "key": {"chronic constipation [1]": {"tested_on": "chronic constipation", "test": "Table 1: five inpatient and outpatient studies on Patient Number 1 (chronic constipation): fecal weight, fecal fat, symptoms", "format": "in vivo, human", "description": "The tables set forth the significant details and results of a number of studies conducted with different patients suffering from various forms of intestinal dysmotility. […] The first study was of two days duration. The lengths of subsequent studies are as indicated.\nThe reports Tables 1 to 5 are for patients with chronic constipation. Those in Tables 6, 7 and 8 are for patients with irritable bowel syndrome."}, "[2]": {"test": "Adverse effects by clinical examination, blood and urine analysis in Examples I and II", "format": "in vivo, human", "description": "Samples of the patient's blood and urine were collected each day and subjected to analysis."}, "chronic constipation [3]": {"tested_on": "chronic constipation", "test": "Example I: stool weight of a patient with chronic constipation given naloxone (single blind, placebo first)", "format": "in vivo, human", "procedure": "A person with a history of chronic constipation for a period of over twenty years, requiring daily use of large doses of laxatives plus frequent enemas, was admitted to the research hospital on day one at approximately 4:00 p.m. They were given a standard laxative regimen documented to be inadequate to effect a spontaneous bowel movement, and placed on a high residue diet.\nDuring the first 24 hours they were treated with a placebo (Infusion A) according to the following schedule:\nThe total dosage per day was 21.6 mg.\nDuring the five days that the patient was under hospital care the stools were collected and weighed. The results were as follows:\nThe experiment was conducted as a single blind. The patient was not aware of whether they were receiving a placebo or the active agent."}, "chronic constipation [4]": {"tested_on": "chronic constipation", "test": "Example II: stool weight of a second patient with chronic constipation given naloxone", "format": "in vivo, human", "description": "A second patient with a history of over twenty years of chronic constipation, intractable to laxatives, who for the past several months was only relieved by enema treatment was admitted to the hospital and placed on a high residue diet."}, "opioid receptors": {"tested_on": "opioid receptors", "details": "Wikler, A., Int. J. of the Addictions 12(7) 869, 1977; cited from earlier work"}, "[5]": {"details": "Patient Number 1, Study #1 (inpatient), i.v., Study Day 2, total 24 hour dose 29.2 mg"}, "[6]": {"details": "Patient Number 1, Study #2 (inpatient), p.o., Study Day 1, total 24 hour dose 21.6 mg"}, "[7]": {"details": "Patient Number 1, Study #2 (inpatient), p.o., Study Day 2, total 24 hour dose 21.6 mg"}, "[8]": {"details": "Patient Number 1, Study #2 (inpatient), p.o., Study Day 3, total 24 hour dose 21.6 mg"}, "[9]": {"details": "Day 2, naloxone intravenous (29.2 mg per Table 1)"}, "[10]": {"details": "Day 3, naloxone oral 21.6 mg per day"}, "[11]": {"details": "Day 4, naloxone oral 21.6 mg per day"}, "[12]": {"details": "Day 5, naloxone oral 21.6 mg per day"}, "[13]": {"details": "Day 1, 29.2 mg naloxone, intravenous"}},
  "data": [
    {"compound": "C=CCN1CC[C@]23c4c5ccc(O)c4O[C@H]2C(=O)CC[C@@]3(O)[C@H]1C5", "note": "[naloxone, N-allyl-14-hydroxydihydronormorphinone]", "values": [
      {"measurement": "Fecal Dry Wt. (gm)", "setting": "chronic constipation [1]; [5]", "value": 52, "unit": "gm"},
      {"measurement": "Fecal Wet Wt. (gm)", "setting": "chronic constipation [1]; [5]", "value": 649, "unit": "gm"},
      {"measurement": "Symptoms, Signs, Comments", "setting": "chronic constipation [1]; [5]", "value": "Marked improvement"},
      {"measurement": "Fecal Dry Wt. (gm)", "setting": "chronic constipation [1]; [6]", "value": 77, "unit": "gm"},
      {"measurement": "Fecal Wet Wt. (gm)", "setting": "chronic constipation [1]; [6]", "value": 985, "unit": "gm"},
      {"measurement": "Symptoms, Signs, Comments", "setting": "chronic constipation [1]; [6]", "value": "Marked improvement"},
      {"measurement": "Fecal Dry Wt. (gm)", "setting": "chronic constipation [1]; [7]", "value": 77, "unit": "gm"},
      {"measurement": "Fecal Wet Wt. (gm)", "setting": "chronic constipation [1]; [7]", "value": 997, "unit": "gm"},
      {"measurement": "Symptoms, Signs, Comments", "setting": "chronic constipation [1]; [7]", "value": "Marked improvement"},
      {"measurement": "Fecal Dry Wt. (gm)", "setting": "chronic constipation [1]; [8]", "value": 65, "unit": "gm"},
      {"measurement": "Fecal Wet Wt. (gm)", "setting": "chronic constipation [1]; [8]", "value": 806, "unit": "gm"},
      {"measurement": "Symptoms, Signs, Comments", "setting": "chronic constipation [1]; [8]", "value": "Marked improvement"},
      {"measurement": "Symptoms, Signs, Comments", "setting": "chronic constipation [1]; Patient Number 1, Study #3 (outpatient), p.o., Study Day 1, total 24 hour dose 21.6 mg", "value": "Average day"},
      {"measurement": "Symptoms, Signs, Comments", "setting": "chronic constipation [1]; Patient Number 1, Study #3 (outpatient), p.o., Study Day 2, total 24 hour dose 21.6 mg", "value": "Better than average day"},
      {"measurement": "Symptoms, Signs, Comments", "setting": "chronic constipation [1]; Patient Number 1, Study #3 (outpatient), p.o., Study Day 3, total 24 hour dose 21.6 mg", "value": "Much better than average day"},
      {"measurement": "Fecal Wet Wt. (gm)", "setting": "chronic constipation [1]; Patient Number 1, Study #4 (inpatient), i.v., Study Day 2, total 24 hour dose 29.2 mg", "value": 775, "unit": "gm"},
      {"measurement": "Fecal Wet Wt. (gm)", "setting": "chronic constipation [1]; Patient Number 1, Study #4 (inpatient), i.v., Study Day 3, total 24 hour dose 29.2 mg", "value": 859, "unit": "gm"},
      {"measurement": "Symptoms, Signs, Comments", "setting": "chronic constipation [1]; Patient Number 1, Study #5 (outpatient), route not given, Study Day 1, total 24 hour dose 21.6 mg", "value": "Much better than average"},
      {"measurement": "Symptoms, Signs, Comments", "setting": "chronic constipation [1]; Patient Number 1, Study #5 (outpatient), route not given, Study Day 2, total 24 hour dose 21.6 mg", "value": "Much better than average"},
      {"measurement": "Symptoms, Signs, Comments", "setting": "chronic constipation [1]; Patient Number 1, Study #5 (outpatient), route not given, Study Day 3, total 24 hour dose 21.6 mg", "value": "Much better than average"},
      {"measurement": "adverse effects (analysis of blood and urine collected each day)", "setting": "[2]; Example I patient, naloxone intravenous then oral 21.6 mg per day", "value": "No adverse effects"},
      {"measurement": "adverse effects (clinical examinations, blood or urine analysis)", "setting": "[2]; Example II patient, naloxone 29.2 mg intravenous, then 7.2 to 21.6 mg oral", "value": "No adverse effects"},
      {"measurement": "STOOL WEIGHT GRAMS Wet Weight", "setting": "chronic constipation [3]; [9]", "value": 649, "unit": "Grams"},
      {"measurement": "Stool Weight Grams Dry Weight", "setting": "chronic constipation [3]; [9]", "value": 52, "unit": "Grams"},
      {"measurement": "STOOL WEIGHT GRAMS Wet Weight", "setting": "chronic constipation [3]; [10]", "value": 985, "unit": "Grams"},
      {"measurement": "Stool Weight Grams Dry Weight", "setting": "chronic constipation [3]; [10]", "value": 77, "unit": "Grams"},
      {"measurement": "STOOL WEIGHT GRAMS Wet Weight", "setting": "chronic constipation [3]; [11]", "value": 997, "unit": "Grams"},
      {"measurement": "Stool Weight Grams Dry Weight", "setting": "chronic constipation [3]; [11]", "value": 77, "unit": "Grams"},
      {"measurement": "STOOL WEIGHT GRAMS Wet Weight", "setting": "chronic constipation [3]; [12]", "value": 806, "unit": "Grams"},
      {"measurement": "Stool Weight Grams Dry Weight", "setting": "chronic constipation [3]; [12]", "value": 65, "unit": "Grams"},
      {"measurement": "STOOL WEIGHT GRAMS Wet Weight", "setting": "chronic constipation [4]; [13]", "value": 84, "unit": "GRAMS"},
      {"measurement": "Stool Weight Grams Dry Weight", "setting": "chronic constipation [4]; [13]", "value": 18.5, "unit": "GRAMS"},
      {"measurement": "STOOL WEIGHT GRAMS Wet Weight", "setting": "chronic constipation [4]; Day 3, 14.4 mg naloxone, oral", "value": 35, "unit": "GRAMS"},
      {"measurement": "Stool Weight Grams Dry Weight", "setting": "chronic constipation [4]; Day 3, 14.4 mg naloxone, oral", "value": 8.2, "unit": "GRAMS"},
      {"measurement": "STOOL WEIGHT GRAMS Wet Weight", "setting": "chronic constipation [4]; Day 4, 21.6 mg naloxone, oral", "value": 125, "unit": "GRAMS"},
      {"measurement": "Stool Weight Grams Dry Weight", "setting": "chronic constipation [4]; Day 4, 21.6 mg naloxone, oral", "value": 66.4, "unit": "GRAMS"},
      {"measurement": "STOOL WEIGHT GRAMS Wet Weight", "setting": "chronic constipation [4]; Day 5, 21.6 mg naloxone, oral", "value": 230, "unit": "GRAMS"},
      {"measurement": "Stool Weight Grams Dry Weight", "setting": "chronic constipation [4]; Day 5, 21.6 mg naloxone, oral", "value": 82.4, "unit": "GRAMS"},
      {"measurement": "STOOL WEIGHT GRAMS Wet Weight", "setting": "chronic constipation [4]; Day 6, 7.2 mg naloxone, oral", "value": 34, "unit": "GRAMS"}
    ]},
    {"compound": "O=C1CC[C@@]2(O)[C@H]3Cc4ccc(O)c5c4[C@@]2(CCN3CC2CC2)[C@H]1O5", "note": "[Naltrexone, N-cyclopropylmethyl-14-hydroxydihydronormorphinone]", "values": [
      {"measurement": "agonistic activity", "setting": "opioid receptors", "value": "slight agonistic activity"}
    ]}
  ]
}
